Tests used:
[1] = test system: tumor in patients with advanced cancer; assay: Phase 2 clinical study, tumor shrinkage / response; format: in vivo, human
Protocol: (§1) The following examples report the results of phase 2 clinical studies where Compound 1 in tablet form was administered orally to patients with different tumor type. In this trial Compound 1 was administered once/day at a dosage of 16 mg/day or 20 mg/day for a 21 day cycle which was repeated as desired. The compound was also administered intermittently on a schedule of 4 days and 3 days off for 21 days per cycle. The cycle was repeated as desired identifies the adverse events in the trials.
The reported shrinkages are over 50% for patient 100-006, about 10% for patients 100-009 and about 5% for patient 200-007.

[2] = Storage stability of crystal form; format: physicochemical
Protocol: Compound (1) can exist in a crystal form having an x-ray diffraction pattern of least 5 diffraction angles)(20±0.2° selected from 7.7°, 9.5°, 10.3°, 12.3°, 14.5°, 15.6°, 16.3°, 17.8°, 18.3°, 19.3°, 20.9°, 22.8°, 24.2°, 25.7°, 26.8°, 27.7°, 29.0°, and 30.1° in a powder x-ray diffraction spectrum. Preferably the crystal form has peaks at diffraction angles)(20±0.2° 7.7°, 9.5°, 10.3°, 12.3°, 14.5°, 15.6°, 16.3°, 17.8°, 18.3°, 20.9°, 22.8°, 24.2°, 25.7°, 26.8°, 27.7°, 29.0°, and 30.1°. […] The method preparing this crystal form is described in U.S. Pat. No. 10,323,044 the content of which is incorporated herein in its entirety.

[3] = Clearance / accumulation in the body; conditions: in vivo
From the text: A 4 days on and 3 days off cycle in a week is one such cycle, the cycle may be modified to accommodate patients having pharmacokinetics allowing for more days on or requiring more days off such as 5 days on and 2 days off or 3 days on and 4 days off or 6 days on and 1 day off, or 6 days on and 1 day off. The 4 days on and 3 days off regimen or a modified regimen may be repeated for a 21-day cycle or a longer cycle. For example, Compound (1) or its pharmaceutically acceptable salt may be administered consecutively on each of the following four days during a 21-day period: days 1 through 4, days 8 through 11, and days 15 through 18, with a prescribed rest on days 5 through 7, days 12 through 14, and days 19 through 21. Such intermittent administration is applicable also to the combination therapies where Compound (1) or its pharmaceutical acceptable salt is administered in combination with one or more agents.

[4] = test system: endometrial cancer harboring PIK3CA mutation; ovarian clear cell carcinoma; assay: Objective response in patients given oral Compound (1); format: in vivo, human
[5] = Phase 2 clinical study, treatment-related adverse events; format: in vivo, human
Protocol: as §1
A total of 8 patients (50%) experienced at least 1 treatment-related event of Grade ≥3; the most frequently reported event of this kind was rash and maculopapular rash (25.0%).

shelf life indicated ([2]; room temperature, inferred from 40° C. six-month storage): 24 month
stability on storage ([2]; stored at 40° C. for six months): good stability
Structure (SMILES): C[C@]1(O)C[C@@](N)(c2ccc(-c3nc4n(c3-c3ccccc3)COc3ccncc3-4)cc2)C1 [Compound (1)]
patients with tumor shrinkage ([1]; of the 15 patients treated, PIDs 100-006, 200-005, 100-009, 200-007): 4 patients
response in the target lesion (Lymph Node) ([1]; patient 100-006): complete response
tumor shrinkage ([1]; patient 100-006): over 50%
tumor shrinkage ([1]; patient 100-009): about 10%
tumor shrinkage ([1]; patient 200-007): about 5%
clearance from the body [3]: not cleared from the body quickly but can accumulate in the body
patients with objective response ([4]; endometrial cancer harboring PIK3CA mutation): one
patients with objective response ([4]; ovarian clear cell carcinoma): 3 patients
treatment-related Grade ≥3 AE: hyperglycemia ([5]; Grade ≥3): 12.5%
treatment-related Grade ≥3 AE: mucositis oral ([5]; Grade ≥3): 12.5%
treatment-related Grade ≥3 AE: neutrophil count decreased ([5]; Grade ≥3): 12.5%
treatment-related Grade ≥3 AE: rash and maculopapular rash ([5]; Grade ≥3): 25.0%
treatment-related AE: decreased appetite ([5]; any grade): 18.8%
treatment-related AE: diarrhea ([5]; any grade): 18.8%
treatment-related AE: fatigue ([5]; any grade): 37.5%
treatment-related AE: hyperglycemia ([5]; any grade): 31.3%
treatment-related AE: mucositis oral ([5]; any grade): 18.8%
treatment-related AE: nausea ([5]; any grade): 12.5%
treatment-related AE: pruritus ([5]; any grade): 25.0%
treatment-related AE: rash and maculopapular rash, patients ([5]; any grade, up to 20 mg QD / 24 mg intermittent): 62.5%
safety profile ([5]; up to 20 mg QD and 24 mg intermittent dosing, patients with advanced cancer): generally acceptable and clinically manageable
